The numbers were not newly measured in patent publication US20180333418A1, “USE OF PAN FGFR INHIBITORS AND METHOD OF IDENTIFYING PATIENTS WITH CANCER ELIGIBLE FOR TREATMENT WITH A PAN FGFR INHIBITOR” (BAYER PHARMA AKTIENGESELLSCHAFT, priority 2014, published 2018), which cites them from elsewhere.

Series [1] has as its system FGFR1-amplified osteosarcoma cell line G-292. Conditions: Guagnano et al.; cited from earlier work.
For series [2], the system named is ovarian cancer cell line A2780. The following applies: Guagnano et al.; cited from earlier work.

Regarding `CCN1CCN(c2ccc(Nc3cc(N(C)C(=O)Nc4c(Cl)c(OC)cc(OC)c4Cl)ncn3)cc2)CC1` [BGJ398], in series [1], the anti-proliferative effects entry is “anti-proliferative effects”. For the same molecule, the “sensitivity in vitro towards treatment” value in series [2] was “sensitive”.
